Data set [1] has as its system Plasmodium falciparum. Description: Antiplasmodial activity against chloroquine sensitive Plasmodium falciparum NF54 infected in human RBC after 48 hrs by [3H]hypoxanthine incorporation assay. The data set is classed as functional, organism-based.
The next data set concerns CHO. The data set can be described thus: Cytotoxicity against CHO assessed as cell viability after 48 hrs by MTT assay. The data set is classed as cell-based. The note with it: Cricetulus griseus. On the technique in general: Formazan colour is commonly taken as a measure of viable cells.
A short description of data set [2]: Selectivity index, ratio of IC50 for CHO cells to IC50 for Plasmodium falciparum NF54. Type of data set: toxicity, cell-based. The note with it: hamster, read-out: Ratio IC50.
Data set [3] can be described thus: Stability in RPMI medium supplemented with HEPES, NaHCO3, Neomycin and Albumax II after 48 hrs. The data set is classed as physicochemical.
In data set [4] the test system is Plasmodium falciparum. The data set can be described thus: Antiplasmodial activity against Plasmodium falciparum D10 infected in human RBC after 48 to 96 hrs by SYBR Green I dye-based fluorescence assay. Type of data set: functional, organism-based.

Consider `CC(=O)O[C@H]1C[C@@]2(C)[C@@H](C[C@@H](O)[C@H]3[C@@]4(C)CC[C@@H](O)[C@@H](C)[C@@H]4CC[C@@]32C)/C1=C(\CCC=C(C)C)C(=O)NS(C)(=O)=O`, for which the IC50 was over 15 µM in the data set with Plasmodium falciparum [1] and over 169 µM with CHO.

Take `CC(=O)O[C@H]1C[C@@]2(C)[C@@H](C[C@@H](O)[C@H]3[C@@]4(C)CC[C@@H](O)[C@@H](C)[C@@H]4CC[C@@]32C)/C1=C(\CCC=C(C)C)c1n[nH]c(=S)o1`: the figures for the concentration for half-maximal inhibition (IC50) with Plasmodium falciparum [1] and with CHO were 7 µM and 70 µM, respectively. Besides, the selectivity ratio in data set [2] came out at 10.

As for `CCCc1noc(/C(CCC=C(C)C)=C2\[C@@H](OC(C)=O)C[C@@]3(C)[C@H]2C[C@@H](O)[C@H]2[C@@]4(C)CC[C@@H](O)[C@@H](C)[C@@H]4CC[C@@]23C)n1`, the IC50 in the data set with Plasmodium falciparum [1] came to 2.1 µM; in the data set on CHO, 68.2 µM. For the same compound, the selectivity ratio in data set [2] is 32.

Regarding `CC(=O)O[C@H]1C[C@@]2(C)[C@@H](C[C@@H](O)[C@H]3[C@@]4(C)CC[C@@H](O)[C@@H](C)[C@@H]4CC[C@@]32C)/C1=C(\CCC=C(C)C)c1nc(C)no1`, the figures for the IC50 in the data set with Plasmodium falciparum [1] and in the data set with CHO were 3.8 µM and 47.8 µM, respectively. In data set [2], the selectivity ratio was found to be 13.

In the case of `CCCS(=O)(=O)NNC(=O)/C(CCC=C(C)C)=C1\[C@@H](OC(C)=O)C[C@@]2(C)[C@H]1C[C@@H](O)[C@H]1[C@@]3(C)CC[C@@H](O)[C@@H](C)[C@@H]3CC[C@@]12C`, the IC50 with Plasmodium falciparum [1] turned out to be 5.7 µM; in the data set on CHO it was 79.7 µM. For the same compound, in data set [2], the selectivity ratio came out at 14.

On to `CCS(=O)(=O)NNC(=O)/C(CCC=C(C)C)=C1\[C@@H](OC(C)=O)C[C@@]2(C)[C@H]1C[C@@H](O)[C@H]1[C@@]3(C)CC[C@@H](O)[C@@H](C)[C@@H]3CC[C@@]12C`, for which the values for the IC50 in the data set with Plasmodium falciparum [1] and in the data set on CHO were 12.4 µM and 77.3 µM, respectively. Also, in data set [2], the selectivity ratio was 6.

With `CC(=O)O[C@H]1C[C@@]2(C)[C@@H](C[C@@H](O)[C@H]3[C@@]4(C)CC[C@@H](O)[C@@H](C)[C@@H]4CC[C@@]32C)/C1=C(\CCC=C(C)C)C(=O)NNS(=O)(=O)c1ccc(C)cc1`, the IC50 in the data set on Plasmodium falciparum [1] stood at 13.4 µM; in the data set with CHO it was 48.2 µM. Besides, in data set [2], the selectivity ratio came out at 4.

As to `CC(=O)O[C@H]1C[C@@]2(C)[C@@H](C[C@@H](O)[C@H]3[C@@]4(C)CC[C@@H](O)[C@@H](C)[C@@H]4CC[C@@]32C)/C1=C(\CCC=C(C)C)C(=O)NNC(=O)c1cccs1`, the IC50 with Plasmodium falciparum [1] came to 8.4 µM; in the data set on CHO, 78.8 µM. In addition, the selectivity ratio in data set [2] turned out to be 9.

For `CC(=O)O[C@H]1C[C@@]2(C)[C@@H](C[C@@H](O)[C@H]3[C@@]4(C)CC[C@@H](O)[C@@H](C)[C@@H]4CC[C@@]32C)/C1=C(\CCC=C(C)C)C(=O)NNS(=O)(=O)c1ccc(Cl)cc1`, the IC50 is 31.3 µM in the data set with Plasmodium falciparum [1] and 53.2 µM with CHO. In addition, in data set [2], the selectivity ratio is 2.

On to `CC(=O)O[C@H]1C[C@@]2(C)[C@@H](C[C@@H](O)[C@H]3[C@@]4(C)CC[C@@H](O)[C@@H](C)[C@@H]4CC[C@@]32C)/C1=C(\CCC=C(C)C)c1n[nH]c(=O)o1`, for which the IC50 came out at 9.2 µM with Plasmodium falciparum [1] and 82 µM in the data set with CHO. The selectivity ratio in data set [2] was 9.

Take `CCCCS(=O)(=O)NNC(=O)/C(CCC=C(C)C)=C1\[C@@H](OC(C)=O)C[C@@]2(C)[C@H]1C[C@@H](O)[C@H]1[C@@]3(C)CC[C@@H](O)[C@@H](C)[C@@H]3CC[C@@]12C`: the IC50 with Plasmodium falciparum [1] was 8 µM; in the data set on CHO it was 49.9 µM. Besides, the selectivity ratio in data set [2] was found to be 6.

With `CC(=O)O[C@H]1C[C@@]2(C)[C@@H](C[C@@H](O)[C@H]3[C@@]4(C)CC[C@@H](O)[C@@H](C)[C@@H]4CC[C@@]32C)/C1=C(\CCC=C(C)C)c1nc(-c2ccc(F)cc2)no1`, the IC50 in the data set with Plasmodium falciparum [1] came to 1.7 µM; in the data set with CHO it was 77.4 µM. For the same compound, in data set [2], the selectivity ratio turned out to be 46.

As for `CC(=O)O[C@H]1C[C@@]2(C)[C@@H](C[C@@H](O)[C@H]3[C@@]4(C)CC[C@@H](O)[C@@H](C)[C@@H]4CC[C@@]32C)/C1=C(\CCC=C(C)C)C(=O)NS(=O)(=O)c1ccccc1`, the IC50 with Plasmodium falciparum [1] was over 15 µM; with CHO, 96.1 µM.

For the compound `CC(=O)O[C@H]1C[C@@]2(C)[C@@H](C[C@@H](O)[C@H]3[C@@]4(C)CC[C@@H](O)[C@@H](C)[C@@H]4CC[C@@]32C)/C1=C(\CCC=C(C)C)C(=O)Nc1nn[nH]n1`, the IC50 with Plasmodium falciparum [1] was over 15 µM; in the data set with CHO, over 171 µM.

`CC(=O)O[C@H]1C[C@@]2(C)[C@@H](C[C@@H](O)[C@H]3[C@@]4(C)CC[C@@H](O)[C@@H](C)[C@@H]4CC[C@@]32C)/C1=C(\CCC=C(C)C)C(=O)NC#N`: the IC50 in the data set on Plasmodium falciparum [1] is 10.8 µM; in the data set with CHO, over 185 µM. The selectivity ratio in data set [2] was over 17.

For the compound `CC(=O)O[C@H]1C[C@@]2(C)[C@@H](C[C@@H](O)[C@H]3[C@@]4(C)CC[C@@H](O)[C@@H](C)[C@@H]4CC[C@@]32C)/C1=C(\CCC=C(C)C)C(N)=O`, the IC50 with Plasmodium falciparum [1] came out at 35.9 µM; in the data set on CHO, 113 µM. For the same compound, the selectivity ratio in data set [2] worked out at 3.

With `CC(=O)O[C@H]1C[C@@]2(C)[C@@H](C[C@@H](O)[C@H]3[C@@]4(C)CC[C@@H](O)[C@@H](C)[C@@H]4CC[C@@]32C)/C1=C(\CCC=C(C)C)C(=O)NS(=O)(=O)c1ccc(F)c(F)c1`, the concentration for half-maximal inhibition (IC50) with Plasmodium falciparum [1] was 7.3 µM; in the data set with CHO, 81.4 µM. Besides, the selectivity ratio in data set [2] was 11.

As for `CC(=O)O[C@H]1C[C@@]2(C)[C@@H](C[C@@H](O)[C@H]3[C@@]4(C)CC[C@@H](O)[C@@H](C)[C@@H]4CC[C@@]32C)/C1=C(\CCC=C(C)C)C(=O)NN`, the IC50 in the data set with Plasmodium falciparum [1] is 21.3 µM; in the data set on CHO it was 112 µM. The selectivity ratio in data set [2] worked out at 5.

On to `CCc1noc(/C(CCC=C(C)C)=C2\[C@@H](OC(C)=O)C[C@@]3(C)[C@H]2C[C@@H](O)[C@H]2[C@@]4(C)CC[C@@H](O)[C@@H](C)[C@@H]4CC[C@@]23C)n1`, for which the IC50 in the data set with Plasmodium falciparum [1] was found to be 1.9 µM; with CHO it was 71.7 µM. In data set [2], the selectivity ratio came out at 38.

Turning to `C[C@H]1[C@H](OC(=O)CCC(=O)O)O[C@@H]2O[C@@]3(C)CC[C@H]4[C@H](C)CC[C@@H]1[C@@]24OO3` [ARTESUNATE], the IC50 with Plasmodium falciparum [1] came out at 0.004 µM.

`CC(=O)O[C@H]1C[C@@]2(C)[C@@H](C[C@@H](O)[C@H]3[C@@]4(C)CC[C@@H](O)[C@@H](C)[C@@H]4CC[C@@]32C)/C1=C(\CCC=C(C)C)C(=O)O` [FUSIDIC ACID]: the Stability entry in data set [3] is “Stable”. In addition, the IC50 in the data set with Plasmodium falciparum [1] was 59 µM; with Plasmodium falciparum [4] it was 52.8 µM; in the data set on CHO it was over 194 µM. For the same compound, in data set [2], the selectivity ratio is over 3.

In general, IC50 refers to the midpoint of a concentration-inhibition curve.
